Experimental data taken from patent publication EP1649856A2, “Use of pimecrolimus for selective immunomodulation” (Novartis AG, priority 2001, dated 2002).
Entries after “also recorded” stand apart in the source; their conditions may differ.

How the values were obtained:
promoter for human IL-2 = test: IL-2 reporter gene assay; format: cell-based; conditions: concentration required for 50% inhibition
Excerpt: This assay method is disclosed and enabled in U.S. Patent No. 5,897,990, which is hereby incorporated by reference in its entirety and for all purposes.
The cell line is preferentially a human T-cell or macrophage cell line, e.g., a Jurkat cell line, preferably selected for high native production of the desired gene product, for example, producing IL-2 in response to stimulation in the case of an IL-2 reporter gene assay. The reporter gene is any gene expressing a readily observable product, e.g., an enzyme marker such as β-galactosidase or luciferase, or any other suitable enzyme marker. For example, where the enzyme marker is β-galactosidase, the reporter gene is, e.g., a bacterial lacZ gene; where the enzyme marker is luciferase, the gene is, e.g., a Phorinus luciferase gene. Another suitable marker is the gene for the green fluorescent protein produced by the bioluminescent jellyfish, e.g., as described in Chalfie et al., Science, Vol. 263, pp. 802-805 (1994). The promoter gene is a promoter gene for a cytokine or protein for which transcription is stimulated or suppressed by the drug to be monitored.
Blood samples from the patient are diluted, their effect on gene expression in the above described system is measured, and the assay is standardized using known concentrations of the immunosuppressive material.

[1] = system: mixed-lymphocyte reaction; test: mixed-lymphocyte reaction (MLR) assay; format: cell-based; conditions: Mus musculus
Excerpt: In addition to the IL-2 reporter gene assay, the concentration of immunosuppressants, such as pimecrolimus and FK506 can be measured by the mixed-lymphocyte reaction (see Meo, The MLR in the Mouse", Immunological Methods, Lefkovits and Pemis, Eds., p. 227 Academic Press, NY).

[2] = system: allergic contact dermatitis (ACD); test: Rat ACD model; format: in vivo
[3] = system: systemic immune responses; test: Models of systemic immunosuppression (graft-versus-host reaction, antibody formation to sheep red blood cells, kidney transplantation); format: in vivo, rats; conditions: transplantation and vaccination models
Excerpt: Pimecrolimus (also called ASM981 and ELIDEL®) is an ascomycin macrolactam-derivative with anti-inflammatory properties, chemical name is 33-epichloro-33-desoxy-ascomycin. Pimecrolimus is an ascomycin macrolactam-derivative developed originally for topical and oral treatment of inflammatory skin diseases such as atopic dermatitis and psoriasis. Pimecrolimus binds to macrophilin-12 and inhibits the Ca-dependent phosphatase calcineurin. As a consequence, it inhibits T cell activation and blocks the transcription and release of both Th1 and Th2 inflammatory cytokines. […] Tachyphylaxis has not been observed.

[4] = system: SCID mice reconstituted with CD4^+CD45RB^HI T cells; test: SCID-IBD mouse model, treatment from day 1 for 4 weeks; format: in vivo; conditions: for loss of original BW: 4 weeks post-T cell transfer (controls lost 15-18%); for colitis, histological inflammation of colon (score 0-8): 29 days
Excerpt: A well-established animal model for IBD exists (see Leach et al., Am. J. Pathol., Vol. 148, No. 5, pp. 1503-1515 (1996), and Powrie et al., Int. Immunol., Vol. 5, No. 11, pp. 1461-1471 (1993)). It is known that the transfer of syngeneic, naive T lymphocytes (CD4^+CD45RB^HI) into SCID mice results in a severe colitis and wasting disease, SCID-IBD. Histopathologically, features of both CD and UC are represented in this model which has been used throughout the 1990s to bring the understanding of the pathoetiology of this disease of immune dysregulation in man to its present status. There is no other animal model of IBD which is considered relevant for the human disease, both in mechanism and in validity of clinical treatment.
In this study, SCID mice reconstituted with CD4^+CD45RB^HI T lymphocytes were used. These mice are known to develop chronic colitis with characteristics similar to human IBD, as described above.
In this study, SCID mice were reconstituted with 2 x 10^5 CD4^+CD45RB^HI T cells and then treated with pimecrolimus (30, 60 and 100 mg/kg/day) or vehicle daily p.o. for 4 weeks. […] BW was monitored throughout. On termination, blood was withdrawn, spleen, mesenteric lymph nodes (MLN) and colon were removed. Serum haptoglobin levels were measured (ELISA), colitis was assessed histologically and lymphocyte and neutrophil numbers were calculated from FACS analysis of blood, spleen and MLN cell suspensions.
In order to determine the efficacy of ASM981 treatment in preventing intestinal mucosal damage in SCID-IBD mice, a histological examination of the colon sections was performed according to defined morphological parameters. All colon sections were assessed according to a scheme awarding degrees of severity governed by the extent of cell infiltration and inflammation with a score of 8 being the maximum.

pulmonary eosinophilia = test: Antigen-induced pulmonary eosinophilia in actively sensitized rats; format: in vivo, Brown Norway Rats; conditions: given orally as a microemulsion or dissolved in Neoral placebo
Excerpt: Another study looked at the effects of oral administration of pimecrolimus on antigen-induced pulmonary eosinophilia in actively sensitized Brown Norway Rats.

blood cells = conditions: 30 mg b.i.d. oral
Experimental: Pimecrolimus was evaluated as treatment for psoriasis using an oral dose of 60 mg (30 mg b.i.d) during a 4-week clinical study. The cohort included 10 patients; 8 received the treatment and 2 received a placebo. Blood samples were collected before the first administration to establish the gene expression baseline and on days 13 or 14 after treatment with pimecrolimus or placebo and submitted to gene expression analysis in order to gain insights into the mechanisms of action of the compound.
The RNA from blood samples drawn from each patient in the study was extracted and tested on individual DNA microarrays, thus allowing, for each patient, a comparison of gene expression before and after pimecrolimus treatment. […] Genes that were consistently modulated were sorted in functional categories.

[5] = dose range 30-100 mg/kg/day p.o.

With `CC[C@@H]1/C=C(\C)C[C@H](C)C[C@H](OC)[C@H]2O[C@@](O)(C(=O)C(=O)N3CCCC[C@H]3C(=O)O[C@H](/C(C)=C/[C@@H]3CC[C@H](Cl)[C@H](OC)C3)[C@H](C)[C@@H](O)CC1=O)[C@H](C)C[C@@H]2OC` [pimecrolimus, 33-epichloro-33-desoxy-ascomycin] the IC50 (promoter for human IL-2) was 1.5 nM, the IC50 [1] was 9 nM and the “efficacy compared with FK506” value ([2]; oral, same doses, rat ACD model) was “superior”. The “efficacy relative to oral CyA” value ([2]; rat ACD (12.5 mg/kg pimecrolimus similar to 50 mg/kg CyA)) was 4 fold, the “systemic immunosuppressive effect compared to CyA and FK506” value [3] was “only a low potential to impair systemic immune responses; also recorded: minimal immunosuppressive effects” and the “loss of original BW” value ([4]; 30 mg/kg/day p.o.) was 7.1%. For the same compound, the “colitis, histological inflammation of colon (score 0-8)” value (from here on “colitis, histological inflammation”) ([4]; 30 mg/kg/day p.o.) was “moderate to severe”, the “block of neutrophil infiltration into the colon (MPO activity)” value ([4]; 60 mg/kg/day p.o.) was 72% and the “loss of original BW” value ([4]; 60 mg/kg/day p.o.) was 8.8%. The “colitis, histological inflammation” value ([4]; 60 mg/kg/day p.o.) was “moderate”, the “mice with macroscopically normal feces (diarrhea)” value ([4]; 100 mg/kg/day p.o.) was “Approximately half of the mice” and the “neutrophil infiltration into the colon (MPO activity)” value ([4]; 100 mg/kg/day p.o.) was “completely blocked”. For the same compound, the “loss of original BW” value ([4]; 100 mg/kg/day p.o.) was 3.2%, the “colitis, histological inflammation” value ([4]; 100 mg/kg/day p.o.) was “only mildly inflamed colons” and the “reduction of Haptoglobin production (serum)” value [4, 5] was 68-92%. For the same compound, the “reduction of blood neutrophilia” value [4, 5] was 85-96%, the “reduction of spleen neutrophilia” value [4, 5] was 74-83% and the “lymphocyte numbers in MLN” value ([4]; up to 100 mg/kg/day p.o.) was “significant reduction”. For the same compound, the “lymphocyte numbers in blood or spleen” value ([4]; up to 100 mg/kg/day p.o.) was “did not significantly affect”, the antigen-induced pulmonary eosinophilia (pulmonary eosinophilia) was “effective” and the “toxic effect in the expression profile” value (blood cells) was “No obvious toxic effect”. The “expression of genes involved in asthma and IBD (RANTES, GALECTIN-3, Thromboxane A2 receptor, Glutathione peroxidase)” value (blood cells; days 13 or 14 vs baseline) was “specifically and significantly down-regulated” and the “expression of inflammatory mediators (Leukotriene A4 hydrolase, prostaglandin endoperoxide synthase)” value (blood cells; days 13 or 14 vs baseline) was “strongly down regulate”.
